Columns and labels:
[1] = target: T1, substance P receptor (Homo sapiens, UniProt P25103); experiment: Radioligand receptor binding inhibitory activity using receptor from human lymphoblast cells (IM-9); details: [125I]-BHSP binding, receptor from IM-9 cells, 25 C, 30 min
T1 construct: endogenous in cells; host or cells: IM-9 human lymphoblast cells (membrane preparation)
Procedure: Radioligand receptor binding inhibitory activity (Binding inhibitory activity using receptor from human lymphoblast cells (IM-9))
The method of M. A. Cascieri et al., “Molecular Pharmacology 42, p. 458 (1992)” was modified and used. The receptor was. prepared from human lymphoblast cells (IM-9). IM-9 cells (2×10^5 cells/mL) were incubated for 3 days (one liter), which was then subjected to centrifuge for 5 min. at 500×G to obtain cell pellets. The obtained pellets were washed once with phosphate buffer (Flow Laboratories, CAT. No. 28-103-05), which were then homogenized using Polytron homogenizer (“Kinematika”, Germany) in 30 mL of 50 mM Tris-HCl buffer (pH 7.4) containing 120 mM sodium chloride, 5 mM potassium chloride, 2 μg/mL chymostatin, 40 μg/mL bacitracin, 5 μg/mL phosphoramidon, 0.5 mM phenylmethylsulfonyl fluoride, 1 mM ethylenediamine tetra-acetate, which was subjected to centrifuge at 40,000×G for 20 min. The residue was washed twice with 30 mL of the buffer, which was then preserved frozen (−80° C.) as a specimen of the receptor.
The specimen was suspended in a reaction buffer (50 mM Tris-HCl buffer (pH 7.4), 0.02% bovine serum albumin, 1 mM phenylmethylsulfonyl fluoride, 2 μg/mL chymostatin, 40 μg/mL bacitracin and 3 mM manganese chloride) to have protein in the concentration of 0.5 mg/mL of protein and 100 μL portion of the suspension was used in the reaction. After addition of the sample and ^125]-BHSP (0.46 KBq), the reaction was allowed to proceed in 0.2 mL of reaction buffer at […] for 30 min. The amount of nonspecific binding was determined by adding substance P at a final concentration of 2×10^−6 M.
After the reaction, using a cell harvester (290 PHD, Cambridge Technology, Inc, U.S.A.), filtration was carried out through a glass filter (GF/B, Whatman, U.S.A.), which was immersed in 0.1% polyethyleneimine for 24 hrs. and dried. After washing three times with 250 μL of 50 mM Tris-HCl buffer (pH 7.4) containing 0.02% bovine serum albumin, the radioactivity remaining on the filter was. determined with a gamma counter.
The antagonistic activity of each compound obtained in Examples was determined in terms of the concentration necessary to cause 50% inhibition (IC50 value) under the above-described conditions, and the results were shown in Table 14.
The radio ligand means substance P labeled with [^125I].

[2] = test system: urethane anesthetized male guinea pigs; experiment: Bladder capacity increasing action in urethane anesthetized guinea pigs; assay type: in vivo, guinea pig; details: for Changes in bladder capacity (vs before administration, %): mean ± S.E.M.
Procedure: Bladder capacity increasing activity of substance P receptor antagonist (bladder capacity increasing action in urethane anesthetized guinea pigs)
A urinary frequency/urine incontinence suppressing effect of a substance having a substance P receptor antagonistic action was shown in terms of the ability to increase bladder capacity of urethane anesthetized male guinea pigs. After emptying the bladder by suction, saline warmed to 39° C. is infused into the bladder at a constant rate (0.3 mL/min.), until voiding. This procedure was repeated to confirm stable bladder capacity (amount of saline injected before induction of voiding). After confirming a stable response, a compound dissolved in DMSO was intravenously administered and the action was measured. Changes in the bladder capacity after drug administration were measured.

T1 sequence (P25103 whole entry): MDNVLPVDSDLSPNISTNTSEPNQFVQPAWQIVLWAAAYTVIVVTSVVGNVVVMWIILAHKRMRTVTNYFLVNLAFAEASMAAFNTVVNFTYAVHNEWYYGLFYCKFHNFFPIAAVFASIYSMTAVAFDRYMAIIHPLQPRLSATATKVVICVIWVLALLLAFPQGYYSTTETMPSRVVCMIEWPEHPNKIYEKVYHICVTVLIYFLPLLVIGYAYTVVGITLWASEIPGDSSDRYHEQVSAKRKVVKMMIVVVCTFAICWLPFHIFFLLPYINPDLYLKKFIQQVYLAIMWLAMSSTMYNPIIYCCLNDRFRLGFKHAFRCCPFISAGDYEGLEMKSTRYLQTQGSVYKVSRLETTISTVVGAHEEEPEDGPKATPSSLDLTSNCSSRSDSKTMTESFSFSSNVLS

C[C@@H](O[C@@H]1CCNC[C@@H]1c1ccccc1)c1cc(C(F)(F)F)cc(C(F)(F)F)c1.Cl
melting point: 150 to 152 °C

C[C@H](O[C@H]1CCNC[C@H]1c1ccccc1)c1cc(C(F)(F)F)cc(C(F)(F)F)c1.Cl
melting point: 150 to 152 °C

CCC(=O)N[C@H]1CC[C@H](C(=O)N2CC[C@H](O[C@H](C)c3cc(C(F)(F)F)cc(C(F)(F)F)c3)[C@H](c3ccccc3)C2)CC1 [Example 43, N-[trans-4-[[(3R,4S)-4-[(1R)-1-[3,5-Bis(trifluoromethyl)phenyl]ethoxy]-3-phenylpiperidin-1-yl]carbonyl]cyclohexyl]propanamide]
IC50 [1]: 0.039 nM | Changes in bladder capacity (vs before administration, %) ([2]; Table 16, 0.01 mg/kg intravenous): 20.8 ± 5.6% | Changes in bladder capacity (vs before administration, %) ([2]; Table 16, 0.03 mg/kg intravenous): 19.3 ± 4.5% | Changes in bladder capacity (vs before administration, %) ([2]; Table 16, 0.1 mg/kg intravenous): 39.9 ± 4.9 % | Changes in bladder capacity (vs before administration, %) ([2]; Table 16, 0.3 mg/kg intravenous): 55.2 ± 13.3 % | Changes in bladder capacity (vs before administration, %) ([2]; Table 16, 1 mg/kg intravenous): 74.3 ± 11.1 %

C[C@@H](O[C@H]1OCCN(Cc2n[nH]c(=O)[nH]2)[C@H]1c1ccc(F)cc1)c1cc(C(F)(F)F)cc(C(F)(F)F)c1 [MK-869, 5-[[(2R,3S)-2-[(1R)-1-[3,5-bis(trifluoromethyl)phenyl]ethoxy]-3-(4-fluorophenyl)-4-morpholinyl]methyl]-1,2-dihydro-3H-1,2,4-triazol-3-one, reference compound]
Changes in bladder capacity (vs before administration, %) ([2]; Table 15, 0.1 mg/kg intravenous): 14.7 ± 4.8% | Changes in bladder capacity (vs before administration, %) ([2]; Table 15, 0.3 mg/kg intravenous): 49.5 ± 10.3 % | Changes in bladder capacity (vs before administration, %) ([2]; Table 15, 1 mg/kg intravenous): 71.2 ± 16.9 % | voiding pressure ([2]; intravenous administration, urethane anesthetized guinea pigs): without affecting the voiding pressure

— patent publication US20060142337A1, “Piperidine derivative and use thereof” (priority 2004, published 2006)
